# Measurements taken from the METLIN SMRT retention time set (Domingo-Almenara et al. 2019).
# Experiment: gradient 5% acetonitrile 3 min, to 50% in 2 min, to 85% in 15 min, held 3 min, 100 µL/min
# Conditions: column: Zorbax Extend-C18 2.1 x 50 mm; eluents: water / acetonitrile, 0.1% formic acid
# Summary of the method: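 Standards, all pure, were combined into mixtures of ~100 molecules and run at 100 μL/min on a Zorbax Extend-C18 column (2.1 × 50 mm, 1.8 μm) with water and acetonitrile, each containing 0.1% formic acid. A coupled quadrupole time-of-flight mass spectrometer operated in positive and negative ionization mode. Retention time values come from computationally picked adduct peaks, each inspected manually.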
row,RP-LC retention time [s],SMILES
1,750,Cc1nc2cc(N3CC(C(=O)NCc4ccc(F)c(Cl)c4)CC3=O)ccc2o1 (stereo not given)
2,1260,Cn1c(C(=O)NCc2ccccc2Cl)cc2sc(Cl)cc21
3,1150,CCOC(=O)c1cnc2c(-c3cccc(Cl)c3)c(COC)nn2c1N
4,665,Cn1ncc2c3ccccc3n(CCCC(=O)NCCCN3CCCC3=O)c2c1=O
5,912,Fc1ccc(C2Cn3nnc(-c4nc(-c5ccncc5)no4)c3CO2)cc1 (stereo not given)
6,731,COc1ccc(NC(=O)c2cnc(N3CCN(c4ccc(OC)cc4)CC3)nc2N)cc1
7,697,Cc1cc(C)n2c(Nc3cccc(C(F)(F)F)c3)c(-c3ccc(O)cc3)nc2n1
8,559,Cc1ccsc1CN1CCc2[nH]nc(C(=O)N(C)C)c2C1
9,872,O=C(CN1C(=O)C2CCCCN2c2ccc(S(=O)(=O)N3CCCC3)cc21)N1CCCCC1 (stereo not given)
10,595,O=C(Nc1ccc(-c2nnc3n2CCCC3)cc1)c1ccn[nH]1
11,757,O=C(COc1ccc(-c2nnc3n2CCCC3)cc1)Nc1ccc(Cl)cc1
12,557,CCc1nccn1Cc1noc(-c2cccc(OC)c2)n1
13,1100,CC1CCCC(NC(=O)Cn2cnc3onc(-c4ccc(Cl)cc4)c3c2=O)C1C (stereo not given)
14,727,O=C(NC1CCCCC1)N1CCC(c2noc(-c3ccncc3)n2)C1 (stereo not given)
15,1180,COc1ccc(-c2ncc3c(n2)CCN(S(=O)(=O)c2cccc(Cl)c2C)C3)cc1
16,760,COc1c(NC=O)c2c(c([N+](=O)[O-])c1OC)C(=O)OC2
17,680,O=C(CCNc1c(-c2cccc(F)c2)nc2cnccn12)NCc1ccco1
18,768,COc1cccc(-c2cc(NCc3ccc4c(c3)OCO4)nc(N)n2)c1
19,862,CCOC(=O)c1c(S(=O)(=O)N2CCC(C(=O)Nc3cccc(F)c3)CC2)c(C)n(C)c1C
20,756,Cc1nn(CC(=O)N2CCCC2)c(=O)c2nc(-c3ccccc3)sc12
21,675,CC(C)c1nnc(-c2cccnc2N2CCN(C(=O)C3CCCO3)CC2)o1 (stereo not given)
22,591,COc1ccc(-c2ncc(C(=O)O)c(=O)[nH]2)cc1OC

row,RP-LC retention time [s],SMILES
1,877,CCc1nnc(-c2cn(CC(=O)NCCCc3ccccc3)c3ccccc23)o1
2,698,Cc1noc2ncnc(N3CCCC(C(=O)Nc4ccc(N5CCC(C)CC5)cc4)C3)c12 (stereo not given)
3,858,CCOCCCNC(=O)N1CCC2(CC1)Nc1cc(F)ccc1-n1cccc12
4,1050,CCOc1ccc(-c2noc(CN3C(=O)COc4ccc(Cl)cc43)n2)cc1OC
5,983,CCCS(=O)(=O)c1nc2ccc(NS(=O)(=O)c3ccc(F)c(C)c3)cc2s1
6,627,Cc1nc(NCCNC(=O)c2snnc2C)cc(-n2cccn2)n1
7,827,COCCNC(=O)C1CCN(c2nc3ccc(-c4ccccc4F)nc3s2)CC1
8,740,COc1ccc(CCNC(=O)CN2C(=O)NC3(CCC(C)CC3)C2=O)cc1OC (stereo not given)
9,786,CC(C)n1c(N2CCN(C(=O)C3CC(=O)N(CCc4ccccc4)C3)CC2)cc(=O)n(C(C)C)c1=O (stereo not given)
10,748,O=C(NCc1ccc(F)cc1)c1cn(-c2ccc(NC(=O)C3CC3)cn2)cn1
11,698,COc1ccc(NC(=O)C2CCc3nc(N4CCCC4)ncc3C2)c(C)c1 (stereo not given)
12,554,CCN(CC)CCNC(=O)c1ccc2c(c1)N(S(C)(=O)=O)CC2
13,660,Cc1ccc2c(C(=O)NCCc3cccs3)cc(NC(=O)C3CCC3)cc2n1
14,791,COCCCNC(=O)c1nccnc1NC(=O)c1ccc(C)cc1
15,632,O=C(Nc1nc(C(=O)N2CCN(c3ncccn3)CC2)co1)c1ccccc1
16,791,Cc1c(Cl)cccc1NC(=O)N1CCC(n2cnc3ccccc3c2=O)CC1
17,717,O=c1n(CC2CC2)nc2n1CCC(NS(=O)(=O)c1cccc(F)c1)CC2 (stereo not given)
18,701,O=C(N[C@H]1C[C@@H]2C[C@H]1CN2C(=O)c1ccccc1Cl)c1cccs1
19,894,CCCn1c(=O)c(-c2ccc(C(=O)NC(C)C)cc2)nc2cccnc21
20,825,O=C(CN1C(=O)NC2(CCCCC2)C1=O)Nc1ccc(Cl)cc1
21,783,COCCn1cc(CCNC(=O)Nc2cccc(Br)c2)c2cccnc21
22,621,CC1(C)CC(=O)c2cnc(N3CCN(c4ccccn4)CC3)nc2C1

row,RP-LC retention time [s],SMILES
1,911,Cc1cccc(NC(=O)COc2ccc(-c3cnc4ccccc4n3)cc2)n1
2,1080,COCCCn1c(=O)c2ccccc2n(Cc2nc(-c3cccc(C(F)(F)F)c3)no2)c1=O
3,963,CCNS(=O)(=O)c1cccnc1Nc1cccc(F)c1
4,876,Cc1ccc(N2CC(c3nc(-c4ccc5c(c4)nc(C)c(=O)n5C)no3)CC2=O)cc1C (stereo not given)
5,827,COc1ccc(C(=O)n2c(SC)nc3ccccc32)cc1OC
6,856,OC(COc1cccc2ccccc12)CN1CCN(c2ccc(Cl)cc2)CC1 (stereo not given)
7,1040,CCn1cc(-c2nc(C(=O)N3CCN(c4ccccc4F)CC3)cs2)c2cccnc21
8,649,Cc1nc(CCNC(=O)NC2CCCCC2)no1
9,818,COc1cccc(NC(=O)NC2CCN(c3ccc(F)c(C)c3)C2=O)c1 (stereo not given)
10,705,Cn1c(CCNC(=O)c2ccc(C(C)(C)C)cc2)nc2cccnc21
11,917,COc1ccc(S(=O)(=O)N2CCCC(C)(C(=O)NCc3ccccc3)C2)cc1 (stereo not given)
12,766,CC(C)N1CCN(Cc2ccc(C(=O)NCc3cccc(C(F)(F)F)c3)cc2)C(=O)C1=O
13,814,COc1ccc(NC(=O)C2c3ccccc3C(=O)N3CCc4cc(OC)c(OC)cc4C23)c(OC)c1 (stereo not given)
14,1010,COc1ccc(-c2nc(CS(=O)(=O)c3ccc(C)cc3)no2)c(C)c1
15,891,CCN1C(=O)c2ccccc2Oc2ccc(C(=O)NC3CCCC3)cc21
16,646,CC1CCN(CC[C@H]2CCCN2S(=O)(=O)c2cccc(O)c2)CC1
17,836,O=C(C1CCC1)N1CCc2sc(S(=O)(=O)NCc3ccc4c(c3)OCO4)cc2C1
18,672,O=C(Cn1c(=O)c(CCC(=O)NC2CCCC2)nc2ccccc21)Nc1ccc(F)c(Cl)c1
19,534,Cc1cc(C)n(CCNS(C)(=O)=O)n1
20,578,CC(C)c1ccc(CNC(=O)Cc2nnc(-c3ccccn3)o2)cc1
21,900,Cc1oc(C2CCN(S(=O)(=O)c3ccc(C(F)(F)F)cc3)CC2)nc1C(=O)N(C)C
22,640,O=C(COC(=O)c1cccnc1)Nc1ccc2c(c1)OCO2

row,RP-LC retention time [s],SMILES
1,690,CC(C)CCN1CCC(N2CCN(S(=O)(=O)c3ccc(F)cc3F)CC2)C1=O (stereo not given)
2,767,COC(=O)c1ccc(Cn2cnc3nc4c(cc3c2=O)CCCC4)cc1
3,1110,Fc1ccc(-c2nnc(Cc3nc(-c4cccc(C(F)(F)F)c4)no3)o2)cc1
4,652,O=C(c1ccc(S(=O)(=O)c2ccccc2)s1)N1CCN(c2ccccn2)CC1
5,759,Cc1cc(C)c(C(=O)N2CCC(CC(=O)NCc3ccc(F)cc3)CC2)[nH]1
6,848,CCOC(=O)c1ccc(NC(=O)c2c(C)oc3nc(C)nc(N4CCCC4)c23)cc1
7,730,O=C(Nc1cccc(Cl)c1)Nc1c(-c2ccc(F)cc2)nc2ccccn12
8,1050,CCc1ccc(Oc2cc(N3CCC(C(=O)NCc4ccc(C)cc4)CC3)ncn2)cc1
9,936,Cc1cc(C)cc(N2CCC(NC(=O)Nc3ccccc3Cl)C2=O)c1 (stereo not given)
10,692,CNC(=O)c1cccc(Nc2c(-c3ccc(Cl)cc3)nc3cnccn23)c1
11,687,O=C(NCc1ccco1)C1CC(=O)N(c2ccc3c(c2)CCN3C(=O)C2CC2)C1 (stereo not given)
12,841,CN1C(=O)COc2cc(-c3noc(C(=O)N4CCCCC4)n3)ccc21
13,754,CCCCNC(=O)c1ccc2c(c1)NC(=O)C(CC(C)C)N2 (stereo not given)
14,895,COc1ccc(Cl)cc1NC(=O)N1CCC2(CC1)NC(=O)c1cc(C)ccc1N2C
15,974,Cc1cc(=O)n(CC(=O)Nc2ccc3c(c2)OCO3)c(-c2ccc(F)cc2)n1
16,719,CSc1ccc(-c2nc3cc(C)ccn3c2Nc2ccc3c(c2)OCCO3)cc1
17,796,CCc1noc(COC2CCCN(C(=O)NCCc3ccccc3)C2)n1 (stereo not given)
18,1090,COc1ccccc1-c1nc(-c2ccc3c(c2)oc(=O)n3C(C)C)no1
19,704,Cc1ccc(C)c(S(=O)(=O)NCC2CN(C)CC23CCCCC3)c1 (stereo not given)
20,637,CCCCNc1nnc(-c2nnc(C)o2)c2ccccc12
21,745,O=c1c(NC2CCCCC2)nc2ccncc2n1Cc1ccccc1
22,897,Cc1nnc(-c2ccc(Cl)cc2)nc1N1CCC(C)CC1

row,SMILES,RP-LC retention time [s]
1,Cc1cc(OCC(=O)N[C@H](C(=O)O)C(C)C)c2c3c(c(=O)oc2c1)CCC3,788
2,CCCn1cc(C(=O)Nc2ccc3c(c2)OCCO3)c2cccnc21,833
